In patent US12187721B2, “Protein tyrosine phosphatase inhibitors” (Array BioPharma Inc., priority 2018, dated 2025) one finds IC50 data, which are given here for 29 compounds.

In general, pIC50 refers to the IC50 on a negative log10 scale, so that one unit is a factor of ten. Low readings indicate a high IC50, high ones a low IC50.

Each structure is given as a SMILES string. pIC50: −log10 of the molar value.

In the assay the target is T1, full-length SHP2 (His6-tagged SHP2(2-527)) (Homo sapiens, UniProt Q06124).
T1 construct: His6-tagged SHP2(2-527); His6; made in house; host or cells: E. coli
T1 sequence (Q06124 2-527): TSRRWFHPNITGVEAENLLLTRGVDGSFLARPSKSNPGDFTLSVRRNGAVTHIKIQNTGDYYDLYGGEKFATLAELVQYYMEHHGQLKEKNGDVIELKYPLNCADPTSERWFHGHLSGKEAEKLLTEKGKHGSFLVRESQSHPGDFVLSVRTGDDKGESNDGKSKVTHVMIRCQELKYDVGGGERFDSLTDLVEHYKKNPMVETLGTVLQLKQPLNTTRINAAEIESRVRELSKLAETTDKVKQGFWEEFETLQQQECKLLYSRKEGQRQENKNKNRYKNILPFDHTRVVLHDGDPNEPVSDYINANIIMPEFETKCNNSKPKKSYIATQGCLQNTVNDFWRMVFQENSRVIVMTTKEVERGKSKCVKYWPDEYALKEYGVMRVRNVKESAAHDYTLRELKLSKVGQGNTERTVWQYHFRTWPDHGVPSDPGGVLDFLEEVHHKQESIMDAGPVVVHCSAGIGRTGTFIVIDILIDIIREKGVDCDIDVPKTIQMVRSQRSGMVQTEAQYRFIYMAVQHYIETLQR
Description: SHP2 Enzymatic Assay (fluorescence intensity kinetic assay, DiFMUP hydrolysis). It is filed as biochemical. Here is the method:
A fluorescence intensity kinetic assay was configured for full-length SHP2 that monitors the amount of 6,8-difluoro-7-hydroxy-4-methylcoumarin (“DiFMU”) formed upon hydrolysis of 6,8-difluoro-4-methylumbelliferyl phosphate (“DiFMUP”) by SHP2. Assay mixtures consisted of 25 mM K^+HEPES, pH 7.4, 0.01% Triton X-100, 1 mM DTT, 50 mM KCl, 100 μg/mL bovine γ-globulin, 50 μM DiFMUP, 1 μM SHP2 activating peptide (LN(pY)IDLDLV(dPEG8)LST(pY)ASINFQK-amide), 1 nM full-length SHP2 (His6-tagged SHP2(2-527), recombinantly expressed in E. coli and purified in-house) and 2% dimethylsulfoxide (“DMSO”) (from compound). […] The assay was run in 384-well, polystyrene, low-volume, non-treated, black microtiter plates (Costar 4511) in a final volume of 20 μL. Low control wells lacked enzyme. The assays were initiated by the addition of a mixture of SHP2 and the activating peptide, and following a 15 second mix on an orbital shaker, were read in kinetic mode for 15 minutes (30 seconds/cycle) at ambient temperature on a PerkinElmer EnVision microplate reader (λEx=355 nm, λEm=460 nm). Initial velocities (slopes of the tangents at t=0) were estimated from exponential fits to the slightly nonlinear progress curves and then were converted to percent of control (“POC”) using the following equation:
[formula] • Where: Xmax Average Uninhibited Controls • Xmin Average Background A 4-parameter logistic model was the fit to the POC data for each compound. From that fit, the IC50 was estimated and is defined as the concentration of compound at which the curve crosses 50 POC.
The reported IC50 in Table 1 may be from a single assay or the mean of multiple assays.
For the compound `Nc1nccc(Sc2ccc3nc(N4CCC5(CCN5)CC4)cnc3n2)c1Cl` [Example 55, 4-((2-(1,7-diazaspiro[3.5]nonan-7-yl)pyrido[2,3-b]pyrazin-6-yl)thio)-3-chloropyridin-2-amine], the negative logarithm of the IC50 (pIC50) was 6.92.
For the compound `Nc1nccc(Sc2ccc3nc(N4[C@@H]5CCC[C@H]4CC(N)C5)cnc3n2)c1Cl` (stereo partly drawn) [Example 56, (1R,5S)-9-(6-((2-amino-3-chloropyridin-4-yl)thio)pyrido[2,3-b]pyrazin-2-yl)-9-azabicyclo[3.3.1]nonan-3-amine], the pIC50 was 7.38.
As for `Nc1nccc(Sc2ccc3nc(N4C[C@H]5C[C@H](N)[C@@H](C4)O5)cnc3n2)c1Cl` [Example 58, (1R,5R,6S)-3-(6-((2-amino-3-chloropyridin-4-yl)thio)pyrido[2,3-b]pyrazin-2-yl)-8-oxa-3-azabicyclo[3.2.1]octan-6-amine], the figure is 6.82.
The same measure for `N[C@H]1C[C@@H]2CN(c3cnc4nc(Sc5cccc(Cl)c5Cl)ccc4n3)C[C@H]1O2` [Example 59, (1R,5R,6S)-3-(6-((2,3-dichlorophenyl)thio)pyrido[2,3-b]pyrazin-2-yl)-8-oxa-3-azabicyclo[3.2.1]octan-6-amine]: 6.39; for `CC(C)(N)C1CCN(c2cnc3nc(Sc4ccnc(N)c4Cl)ccc3n2)CC1` [Example 60, 4-((2-(4-(2-aminopropan-2-yl)piperidin-1-yl)pyrido[2,3-b]pyrazin-6-yl)thio)-3-chloropyridin-2-amine]: 6.61.
The same measure for `CC(C)(N)C1CCN(c2cnc3nc(Sc4cccc(Cl)c4Cl)ccc3n2)CC1` [Example 61, 2-(1-(6-((2,3-dichlorophenyl)thio)pyrido[2,3-b]pyrazin-2-yl)piperidin-4-yl)propan-2-amine]: 5.80; for `NCC1CN(c2cnc3nc(Sc4ccnc(N)c4Cl)ccc3n2)CCO1` (centres unmarked) [Example 62, 4-((2-(2-(aminomethyl)morpholino)pyrido[2,3-b]pyrazin-6-yl)thio)-3-chloropyridin-2-amine]: 6.78; for `NCC1CN(c2cnc3nc(Sc4cccc(Cl)c4Cl)ccc3n2)CCO1` (centres unmarked) [Example 63, (4-(6-((2,3-dichlorophenyl)thio)pyrido[2,3-b]pyrazin-2-yl)morpholin-2-yl)methanamine]: 6.55.
As for `NCC1CN(c2cnc3nc(-c4cccc(Cl)c4Cl)ccc3n2)CCO1` (centres unmarked) [Example 64, (4-(6-(2,3-dichlorophenyl)pyrido[2,3-b]pyrazin-2-yl)morpholin-2-yl)methanamine], the pIC50 was 6.14.
`NCC1CN(c2cnc3nc(-c4ccccc4)ccc3n2)CCO1` (centres unmarked) [Example 65, (4-(6-phenylpyrido[2,3-b]pyrazin-2-yl)morpholin-2-yl)methanamine] had a pIC50 of 5.24.
For `C[C@@H]1OCC2(CCN(c3cnc4nc(-c5ccccc5)ccc4n3)CC2)[C@@H]1N` [Example 66, (3S,4S)-3-methyl-8-(6-phenylpyrido[2,3-b]pyrazin-2-yl)-2-oxa-8-azaspiro[4.5]decan-4-amine], the pIC50 is 5.56.
As for `C[C@@H]1OCC2(CCN(c3cnc4nc(Sc5cc(N)nc(Cl)c5Cl)ccc4n3)CC2)[C@@H]1N` [Example 68, (3S,4S)-8-(6-((6-amino-2,3-dichloropyridin-4-yl)thio)pyrido[2,3-b]pyrazin-2-yl)-3-methyl-2-oxa-8-azaspiro[4,5]decan-4-amine], the figure is 7.16; as for `C[C@@H]1OCC2(CCN(c3cnc4nc(N5CCCc6ccccc65)ccc4n3)CC2)[C@@H]1N` [Example 69, (3S,4S)-8-(6-(3,4-dihydroquinolin-1(2H)-yl)pyrido[2,3-b]pyrazin-2-yl)-3-methyl-2-oxa-8-azaspiro[4,5]decan-4-amine], 7.10.
As for `C[C@@H]1OCC2(CCN(c3cnc4nc(N5CCNc6ccccc65)ccc4n3)CC2)[C@@H]1N` [Example 70, (3S,4S)-8-(6-(3,4-dihydroquinoxalin-1(2H)-yl)pyrido[2,3-b]pyrazin-2-yl)-3-methyl-2-oxa-8-azaspiro[4.5]decan-4-amine], the figure is 5.22; as for `Cc1c(Sc2ccc3nc(N4CCC5(CC4)CO[C@@H](C)[C@H]5N)cnc3n2)ccnc1N` [Example 72, (3S,4S)-8-(6-((2-amino-3-methylpyridin-4-yl)thio)pyrido[2,3-b]pyrazin-2-yl)-3-methyl-2-oxa-8-azaspiro[4,5]decan-4-amine], 6.83; as for `CC1(N)CCCN(c2cnc3nc(Sc4ccnc(N)c4Cl)ccc3n2)CC1` (centres unmarked) [Example 73, 1-(6-((2-amino-3-chloropyridin-4-yl)thio)pyrido[2,3-b]pyrazin-2-yl)-4-methylazepan-4-amine], 7.46.
In the case of `C[C@@H]1OCC2(CCN(c3cnc4nc(Sc5ccnc(N6CCS(=O)(=O)CC6)c5Cl)ccc4n3)CC2)[C@@H]1N` [Example 77, 4-(4-((2-((3S,4S)-4-amino-3-methyl-2-oxa-8-azaspiro[4.5]decan-8-yl)pyrido[2,3-b]pyrazin-6-yl)thio)-3-chloropyridin-2-yl)thiomorpholine 1,1-dioxide], the pIC50 was 6.46.
The same measure for `C[C@@H]1OCC2(CCN(c3cnc4nc(Sc5ccnc(N6CCOCC6)c5Cl)ccc4n3)CC2)[C@@H]1N` [Example 79, (3S,4S)-8-(6-((3-chloro-2-morpholinopyridin-4-yl)thio)pyrido[2,3-b]pyrazin-2-yl)-3-methyl-2-oxa-8-azaspiro[4,5]decan-4-amine]: 6.37; for `CC(=O)N1CCN(c2nccc(Sc3ccc4nc(N5CCC6(CC5)CO[C@@H](C)[C@H]6N)cnc4n3)c2Cl)CC1` [Example 80, 1-(4-(4-((2-((3S,4S)-4-amino-3-methyl-2-oxa-8-azaspiro[4.5]decan-8-yl)pyrido[2,3-b]pyrazin-6-yl)thio)-3-chloropyridin-2-yl)piperazin-1-yl)ethan-1-one]: 6.13; for `Nc1nccc(Sc2ccc3nc(N4CCC(N)CC4)cnc3n2)c1Cl` [Example 81, 4-((2-(4-aminopiperidin-1-yl)pyrido[2,3-b]pyrazin-6-yl)thio)-3-chloropyridin-2-amine]: 7.14.
The same measure for `Nc1nccc(Sc2ccc3nc(N4CC[C@@H](N)[C@H](O)C4)cnc3n2)c1Cl` [Example 82, (3R,4R)-4-amino-1-(6-((2-amino-3-chloropyridin-4-yl)thio)pyrido[2,3-b]pyrazin-2-yl)piperidin-3-ol]: 7.19; for `Nc1nccc(Sc2ccc3nc(N4CCC5(CCCC5N)C4)cnc3n2)c1Cl` (centres unmarked) [Example 83, 2-(6-((2-amino-3-chloropyridin-4-yl)thio)pyrido[2,3-b]pyrazin-2-yl)-2-azaspiro[4.4]nonan-6-amine]: 6.76.
As for `Nc1nccc(Sc2ccc3nc(N4CC[C@@H](N)[C@@H](O)C4)cnc3n2)c1Cl` [Example 84, (3S,4R)-4-amino-1-(6-((2-amino-3-chloropyridin-4-yl)thio)pyrido[2,3-b]pyrazin-2-yl)piperidin-3-ol], the figure is 6.99.
For `NCC1CN(c2cnc3nc(Sc4ccnc(N)c4Cl)ccc3n2)C1` [Example 85, 4-((2-(3-(aminomethyl)azetidin-1-yl)pyrido[2,3-b]pyrazin-6-yl)thio)-3-chloropyridin-2-amine], the pIC50 was 6.32.
As to `NCC1(CO)CCN(c2cnc3nc(Sc4ccnc(N)c4Cl)ccc3n2)CC1` [Example 86, (1-(6-((2-amino-3-chloropyridin-4-yl)thio)pyrido[2,3-b]pyrazin-2-yl)-4-(aminomethyl)piperidin-4-yl)methanol], the pIC50 was 7.28.
Regarding `C[C@@H]1OCC2(CCN(c3cnc4nc(Sc5ccnc(N6CC[C@H](CO)C6)c5Cl)ccc4n3)CC2)[C@@H]1N` [Example 87, ((S)-1-(4-((2-((3S,4S)-4-amino-3-methyl-2-oxa-8-azaspiro[4.5]decan-8-yl)pyrido[2,3-b]pyrazin-6-yl)thio)-3-chloropyridin-2-yl)pyrrolidin-3-yl)methanol], the pIC50 was 6.90.
The same measure for `C[C@@H]1OCC2(CCN(c3cnc4nc(Sc5ccnc(N6CC[C@H](O)C6)c5Cl)ccc4n3)CC2)[C@@H]1N` [Example 88, (S)-1-(4-((2-((3S,4S)-4-amino-3-methyl-2-oxa-8-azaspiro[4.5]decan-8-yl)pyrido[2,3-b]pyrazin-6-yl)thio)-3-chloropyridin-2-yl)pyrrolidin-3-ol]: 6.98.
As for `C[C@@H]1OCC2(CCN(c3cnc4nc(Sc5ccnc(N6CCC(O)C6)c5Cl)ccc4n3)CC2)[C@@H]1N` (stereo partly drawn) [Example 89, 1-(4-((2-((3S,4S)-4-amino-3-methyl-2-oxa-8-azaspiro[4.5]decan-8-yl)pyrido[2,3-b]pyrazin-6-yl)thio)-3-chloropyridin-2-yl)pyrrolidin-3-ol], the figure is 7.10; as for `C[C@@H]1OCC2(CCN(c3cnc4nc(Sc5ccnc(CO)c5Cl)ccc4n3)CC2)[C@@H]1N` [Example 90, (4-((2-((3S,4S)-4-amino-3-methyl-2-oxa-8-azaspiro[4.5]decan-8-yl)pyrido[2,3-b]pyrazin-6-yl)thio)-3-chloropyridin-2-yl)methanol], 6.74.
